Earlier results in patent publication US20020072734A1, “Chip systems for the controlled emission of substances having a chemosensory effect” (PHARMED HOLDING GMBH, priority 2000, published 2002).
Read-outs that look alike come from different tables or passages of the source.

Tests used:
regio olfactoria [1] = conditions: rats; applied to the regio olfactoria
regio olfactoria [2] = conditions: mice; applied to the regio olfactoria

In the case of `CC[C@H](C)[C@@H]1NC(=O)[C@H](Cc2ccc(O)cc2)NC(=O)[C@@H](N)CSSC[C@@H](C(=O)N2CCC[C@H]2C(=O)N[C@@H](CC(C)C)C(=O)NCC(N)=O)NC(=O)[C@H](CC(N)=O)NC(=O)[C@H](CCC(N)=O)NC1=O` [oxytocin], the “rapid effects in the central nervous system (anxiety)” value (regio olfactoria [1]) is listed as “relieved anxiety”, the “rapid effects in the central nervous system (depression, aggression)” value (regio olfactoria [1]) is listed as “anti-depressive and anti-aggressive” and the “rapid effects in the central nervous system (anxiety)” value (regio olfactoria [2]) is listed as “relieved anxiety”. The “rapid effects in the central nervous system (depression, aggression)” value (regio olfactoria [2]) was “anti-depressive and anti-aggressive”.
